# Assays:
# Panc-1 = test: Colony formation in soft agar (clonogenicity); assay type: cell-based, human; details: colony counts at two weeks
# Text: Specificity of the RNA interference is confirmed by downregulation of Notch1 transcript levels with the specific siRA, but not with the scrambled controls. […] Bar graphs represent colony counts at two weeks, with mean and standard deviations calculated from triplicate experiments.
# Bar graphs represent colony counts at two weeks, with mean and standard deviations calculated from triplicate experiments.
# E3LZ10.7 = test: Colony formation in soft agar after pre-treatment; assay type: cell-based, human
# Procedure: (Top) Experimental scheme illustrating pre-treatment of pancreatic cancer cell lines with GSI-18, prior to plating for soft agar assays and subcutaneous injection in athymic mice. Treatment for 24 hours with GSI-18 or vehicle is followed by recovery in full serum for a further 24 hours minus the drug. Equal numbers of viable cells from the control and treated groups are then plated for colony assays in soft agar, or injected in nude mice. Of note, during the in vitro or in vivo assays, no further drug is administered. […] The dosage required for significant inhibition of clonogenicity varies between 2 μM (Capan-1) to 5 μM (E3LZ10.7). Bar graphs represent colony counts at two weeks, with mean and standard deviations calculated from triplicate experiments. (Left) Pre-treatment with GSI-18 inhibits tumorigenicity of Panc-1 pancreatic cancer cell line in athymic mice. […] Error bars represent standard deviation of five mice per arm.
# D283 = test: Flow cytometric analysis of CD133-positive fraction; assay type: cell-based; details: 2 μM
# Text: (§1) The effects of Notch on the CD133-positive CSC subpopulation were first examined. Singh and colleagues have shown that only CD133-positive MB and glioblastoma cells are able to form multipotent neurosphere clones or tumor xenografts (6, 12). Another type of brain tumor, ependymoma, also appears to contain a small fraction of CD133-positive cells uniquely capable of initiating tumor xenografts (9). […] The D283Med and D425Med lines, which grow in suspension, contained higher percentages of CD133 positive cells. Sorting of DAOY cultures using magnetic beads coated with antibodies specific for CD133 generated an enriched population in which 30% of cells expressed the stem cell marker, and a negative population in which less than 1% of cells were CD133-positive. […] Thus Notch signaling appears to be especially active in CSC, raising the possibility that inhibition of this pathway may target the CSC population.
# (§2) The DAOY, PFSK, D283 and D425 Med cell lines were obtained from the American Type Culture Collection. The low-passage MB line MB2 was derived from a tumor resected at Johns Hopkins Hospital. For treatment studies, cell were plated and allowed to grow overnight in MEM (Invitrogen, Carlsbad, Calif.) containing 10% FBS, then media was replaced the next morning with low serum (0.5% FBS) MEM containing GSI dissolved in DMSO. RNA and protein extractions, and all cell-based assays, were performed 48 hours after drug application unless otherwise noted. All experiments with error bars were performed in triplicate and shown as mean values with standard error unless otherwise noted. Cell mass was measured using CellTITER assays according to the manufacturer's instructions (Promega, Madison, Wis.). Cell number and viability were assessed using the Guava PCA and Viacount reagent according to instructions (Guava Technologies, Heyward, Calif.). Soft agar assays were performed as previously described (15) and scored either manually after 4 weeks or using as automated reader after 6 weeks. The constitutively active Akt stable cell line was made by transfecting DAOY cells with myristolated Akt (pCB6-IMy-Akt-HA) or control (pCB6+) plasmids (kind gifts from Susan J. Baker) and selecting and maintaining clones in 0.8 mg/ml G418. Soft agar assays were performed as previously described, with colonies counted using an automated reader (15).
# (§3) Flow cytometric analysis of S-phase fraction and cell cycle kinetics was performed using a FACSCalibur (Becton Dickinson, San Jose, Calif.) with CELL Quest, version 3.3 software (15). CD133 studies were performed using the same instrument, with antibodies from Miltenyi (Miltenyi Biotec, Auburn, Calif.) according to the manufacturer's instructions. Cells expressing levels of CD133 higher than those seen in IgG controls were considered positive. For analyses of side population, cells (10^6/ml) were incubated with Hoechst 33342 (3 μM, Molecular Probes, Carlsbad, Calif.) for 90 minutes at 37° C. in DMEM containing 2% FBS. Prior to analysis, cells were washed and resuspended in 2 μg/ml PI (Sigma, St. Louis, Mo.). Cells were analyzed on a LSR flow cytometer equipped with 424/44 nm band pass and 670 nm long pass optical filters (Omega Optical, Brattleboro, Vt.). To ensure proper identification of SP cells, cells were incubated as above with the addition of 50 μM verapamil (Sigma).
# D425 = test: as above; assay type: cell-based; details: 2 μM
# Text: as §1, §2, §3
# DAOY [1] = test: as above; assay type: cell-based; details: 2 μM, 48 hours
# Text: as §1, §2, §3
# PFSK [2] = test: as above; assay type: cell-based; details: 2 μM, p<0.01
# Text: as §1, §2, §3
# DAOY [3] = test: Flow cytometric analysis of the cell cycle; assay type: cell-based; details: 2 μM
# Text: (§4) Double immunolabeling, using antibodies specific for nestin and for Ki67, a marker of proliferating cells, was used to determine effects of Notch pathway blockade on the cell cycle. […] While adult neural stem cells are generally thought to be relatively quiescent, during embryonic growth of the brain the stem cell compartment is highly proliferative. The high rate of division observed in stem-like MB cells may reflect their similarity to those in fetal germinal epithelium.
# as §3, with “To ensure proper identification of SP cells, cells were incubated as above with the addition of 50 μM verapamil (Sigma).” left out
# PFSK [4] = test: Flow cytometric analysis of the cell cycle; assay type: cell-based; details: 2 μM
# Text: as §4
# as §3, with “To ensure proper identification of SP cells, cells were incubated as above with the addition of 50 μM verapamil (Sigma).” left out
# [5] = test system: DAOY expressing activated Akt; test: Apoptosis and growth in DAOY subclones expressing constitutively active Akt; assay type: cell-based
# Procedure: (A) Increase of cleaved Caspase 3 and loss of Akt phosphorylation is induced by 0.4 uMor higher levels of GSI-18, while overall levels of Akt and GAPDH are unchanged in DAOY medulloblastoma cells. (B) Cell death in 2 uM GSI-18 is reduced in a representative subclone of DAOY expressing activated Akt as compare to vector transfected cells. (C) Loss of Akt phosphorylation and activation of Caspase3 cleavage is induced by 2 μM or higher levels of GSI-18, while overall levels of Akt and GAPDH are unchanged in GBM neurosphere cells.
# It has previously been shown that Akt is a critical effector of Notch-regulated survival and growth outside the brain (26, 27). Therefore, it was examined whether Akt was also a mediator of the pro-survival and pro-growth effects of Notch in brain tumors. GSI-18 blocks the phosphorylation of Akt required for its activation at concentrations as low as 0.4 μM (FIG. 7F). […] Thus the pro-survival effects of Notch signaling in MB appear to be mediated at least in part by Akt.
# as §2, with “All experiments with error bars were performed in triplicate and shown as mean values with standard error unless otherwise noted.” left out, “The constitutively active Akt stable cell line was made by transfecting DAOY cells with myristolated Akt (pCB6-IMy-Akt-HA) or control (pCB6+) plasmids (kind gifts from Susan J. Baker) and selecting and maintaining clones in 0.8 mg/ml G418.” left out
# D425Med = test: Xenograft initiation by pretreated cells in athymic (nude) mice; assay type: in vivo; details: treated 48 hours, n=2
compound,measurement,setting,value
"O=S(=O)(NC1C2CCC1Cc1ccccc1C2)c1cccs1 (stereo not drawn) [GSI-18, [11-endo]-N-(5,6,7,8,9,10-hexahydro-6,9-methanobenzo[α][8]annulen-11-yl)-thiophene-2-sulfonamide]","clonogenicity, colony formation in soft agar",Panc-1,significant inhibition of clonogencity
same,colony formation following pre-treatment,"E3LZ10.7; 24 hours pre-treatment, 24 hours recovery minus drug, colony counts at two weeks",Significant inhibition of colony formation
same,dosage required for significant inhibition of clonogenicity,E3LZ10.7; pre-treatment,5 µM
same,decrease in the percentage of CD133-positive cells,D283,less pronounced
same,decrease in the percentage of CD133-positive cells,D425,less pronounced
same,fold reduction of CD133-positive stem-like fraction,DAOY [1]; p<0.01,3 fold
same,CD133-positive stem-like fraction after treatment,DAOY [1]; untreated 9.9%,3.3%
same,fold reduction in the percentage of CD133-positive cells,PFSK [2],4.8 fold
same,"G1/G0, S phase and G2/M cell fractions",DAOY [3],increased the G1/G0 cell fraction and decreased the S phase and G2/M fractions
same,"G1/G0, S phase and G2/M cell fractions",PFSK [4],increased the G1/G0 cell fraction and decreased the S phase and G2/M fractions
same,cell death vs vector transfected cells,"[5]; 2 uM, representative subclone of DAOY expressing activated Akt",reduced
same,apoptotic rate on exposure,"[5]; MB cells stably transfected with constitutively active Akt, 2 μM",not significantly increased
same,inhibition of cell growth in Akt-transfected subclones,"[5]; two DAOY subclones with constitutively active Akt, data not shown",partially rescued
same,engraftment of pretreated cells,D425Med,failed to engraft

# Source: patent US20140227173A1, “CANCER TREATMENT WITH GAMMA-SECRETASE INHIBITORS” (The Johns Hopkins University, priority 2006, published 2014)
